EP4768487A1, “FUSED LACTAM RING COMPOUND AND USE THEREOF” (Chengdu Zenitar Biomedical Technology Co., Ltd., priority 2023, dated 2025)
Read-outs that look alike come from different tables or passages of the source.

Assays:
[1] = Cerebrospinal fluid and plasma distribution in vivo; conditions: rat, male rats, intravenous 5 mg/kg, n = 1
Protocol: Experimental procedures: The compound was weighed out, a small amount of DMSO was added, and then a sodium chloride solution for injection was added to prepare a 5 mg·mL^-1 compound solution for later administration. […] 10 µL of the plasma and 10 µL of the cerebrospinal fluid were each added to a centrifuge tube, and 40 µL of acetonitrile containing 20 ng·mL^-1 internal standard SAHA was added for precipitation. […] The supernatant was collected and transferred to a sample vial for later analysis. Range of standard curve: 1-1000 ng·mL^-1.

[2] = target: T1, PARP6 (Homo sapiens, UniProt Q2NL67); assay: Assay for selectivity for PARP6 (ELISA, chemiluminescence); assay type: biochemical
T1 construct: purchased BPS 80556
Protocol: Main instruments and reagents for PARP6 assay
Experimental procedures: The enzymatic activity of PARP6 was assayed by the ELISA method. […] The IC50 values of the compounds were calculated using the nonlinear fitting formula in GraphPad software.

[3] = target: T2, PARP1 (Homo sapiens, UniProt P09874); assay: PARP1 enzyme assay (histone-coated plate, chemiluminescence); assay type: biochemical; conditions: PARP1 0.02 nM, DNA 0.8 nM, NAD+ 3.5 µM; read-out: PARP-1 IC50
T2 construct: purchased BPS 80501

[4] = test system: BRCA wild-type DLD-1 cells; assay: Anti-proliferative activity against cells (CCK8): DLD-1; assay type: cell-based; conditions: Homo sapiens, 72 h + 96 h culture
Summary of the method: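 DLD-1 cells (1000/well) in RPMI-1640 with 10% FBS, treated 24 h after plating with PARPi at 0, 1 or 10 µM final. Cultured 72 h, medium exchanged with re-added PARPi, then a further 96 h; read-out by CCK8.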

[5] = test system: BRCA-mutated MDA-MB-436 cells; assay: Anti-proliferative activity against cells (CCK8): MDA-MB-436; assay type: cell-based; conditions: Homo sapiens, 72 h + 96 h culture
[6] = Pharmacokinetic evaluation in Balb/c mice; assay type: in vivo; conditions: 1mg/kg, PO
Protocol: Experimental objective: To understand the pharmacokinetic profiles of the compounds. Experimental basis: Technical guidelines for non-clinical pharmacokinetic studies of chemical drugs, 2014.
Experimental scheme: The pharmacokinetic profiles of the compounds were investigated by intravenous administration (1 mg·kg^-1) and intragastric administration (1 mg·kg^-1) in Balb/c mice.
Sample preparation: About 0.2 mg of the compound was weighed out and dissolved in 10 µL of DMSO, and then a sodium chloride solution for injection was added to prepare a 0.1 mg·mL^-1 compound solution for later administration.
Three of the mice were subjected to intravenous administration (IV) at 1 mg·kg^-1, while the other three were subjected to intragastric administration (PO) at 1 mg·kg^-1. About 0.05 mL of blood was collected at 5 min, 15 min, 30 min, 1 h, 2 h, 4 h, 6 h, 8 h, 10 h, 24 h, and 48 h after administration. The collected blood was centrifuged at 3500 rpm for 15 min. The supernatant plasma was then collected and cryopreserved at -40 °C for later analysis. The plasma concentration was quantitatively analyzed using the LC-MS/MS method, and pharmacokinetic parameters such as […] (Cmax), area under plasma concentration-time curve (AUC(0-t)), half-life (T1/2), clearance rate (CL), tissue distribution (Vdss), and bioavailability (F) were calculated. Table 18. Results of pharmacokinetic test of compounds in Balb/c mice

[7] = test system: MDA-MB-436 breast cancer subcutaneous xenograft tumor model; assay: In vivo pharmacodynamic study of compound 53 in MDA-MB-436 subcutaneous xenograft tumor model; set-up: species or system NOD/SCID mice; conditions: oral once daily, 30 days; for inhibitory effects on tumor growth (in words): compared to blank control
[8] = cerebrospinal fluid, read-out: Cerebrospinal fluid

T1 sequence (Q2NL67 whole entry): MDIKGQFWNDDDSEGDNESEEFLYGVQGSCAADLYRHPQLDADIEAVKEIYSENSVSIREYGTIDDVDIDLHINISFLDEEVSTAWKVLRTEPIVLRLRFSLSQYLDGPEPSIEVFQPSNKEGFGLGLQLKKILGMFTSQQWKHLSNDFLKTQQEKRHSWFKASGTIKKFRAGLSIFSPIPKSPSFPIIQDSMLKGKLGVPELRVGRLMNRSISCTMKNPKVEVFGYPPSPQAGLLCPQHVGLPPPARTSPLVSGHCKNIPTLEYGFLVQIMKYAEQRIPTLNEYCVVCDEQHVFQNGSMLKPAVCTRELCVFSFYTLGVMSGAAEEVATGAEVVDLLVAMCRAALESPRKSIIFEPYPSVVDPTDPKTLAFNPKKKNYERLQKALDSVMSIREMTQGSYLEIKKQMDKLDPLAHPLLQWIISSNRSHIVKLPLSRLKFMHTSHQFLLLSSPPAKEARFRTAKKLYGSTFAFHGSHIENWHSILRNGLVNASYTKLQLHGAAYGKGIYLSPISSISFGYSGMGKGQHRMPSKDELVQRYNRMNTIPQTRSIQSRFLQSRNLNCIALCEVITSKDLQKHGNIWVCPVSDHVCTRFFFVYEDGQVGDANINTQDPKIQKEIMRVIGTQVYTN
T2 sequence (P09874 whole entry): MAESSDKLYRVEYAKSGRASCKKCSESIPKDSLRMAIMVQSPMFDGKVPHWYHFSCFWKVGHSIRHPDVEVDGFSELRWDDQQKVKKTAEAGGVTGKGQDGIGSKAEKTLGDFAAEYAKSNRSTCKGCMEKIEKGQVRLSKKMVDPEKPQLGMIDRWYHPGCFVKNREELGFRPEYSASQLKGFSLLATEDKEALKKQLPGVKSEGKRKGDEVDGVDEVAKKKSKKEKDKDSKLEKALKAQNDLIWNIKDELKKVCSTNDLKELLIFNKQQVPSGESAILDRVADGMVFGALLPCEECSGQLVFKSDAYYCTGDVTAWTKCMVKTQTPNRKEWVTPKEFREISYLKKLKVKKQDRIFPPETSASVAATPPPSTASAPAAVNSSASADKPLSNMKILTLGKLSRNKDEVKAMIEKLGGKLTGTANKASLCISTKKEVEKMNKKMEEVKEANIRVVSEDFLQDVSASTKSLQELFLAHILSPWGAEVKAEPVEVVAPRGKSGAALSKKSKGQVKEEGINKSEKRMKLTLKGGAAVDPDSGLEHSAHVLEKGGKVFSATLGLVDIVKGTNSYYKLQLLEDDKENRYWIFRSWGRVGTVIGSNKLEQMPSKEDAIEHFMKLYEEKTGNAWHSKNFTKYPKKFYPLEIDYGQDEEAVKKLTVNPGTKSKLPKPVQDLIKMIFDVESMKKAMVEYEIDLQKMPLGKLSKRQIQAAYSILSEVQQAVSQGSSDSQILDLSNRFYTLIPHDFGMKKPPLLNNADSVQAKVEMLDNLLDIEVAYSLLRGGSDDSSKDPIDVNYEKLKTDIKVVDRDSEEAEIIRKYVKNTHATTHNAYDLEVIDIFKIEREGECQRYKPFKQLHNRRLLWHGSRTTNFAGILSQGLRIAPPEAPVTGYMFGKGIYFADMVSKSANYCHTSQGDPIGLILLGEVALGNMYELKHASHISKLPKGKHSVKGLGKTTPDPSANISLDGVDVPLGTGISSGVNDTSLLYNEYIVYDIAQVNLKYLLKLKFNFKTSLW

SMILES: CNC(=O)c1ccc(N2CCN(CC3Cc4[nH]c(=O)c(C(F)F)cc4CO3)CC2)c(F)n1 (stereo not shown) [Example 43, 5-(4-((3-(Difluoromethyl)-2-oxo-1,5,7,8-tetrahydro-2H-pyrano[4,3-b]pyridin-7-yl)methyl)piperazin-1-yl)-6-fluoro-N-methylpicolinamide]
- concentration at 0.25 h [1, 8]: 16 ng/g
- concentration at 2 h [1, 8]: 3 ng/g
- concentration at 0.25 h ([1]; plasma, read-out: Plasma): 8030 ng/mL
- concentration at 2 h ([1]; plasma, read-out: Plasma): 7690 ng/mL
- IC50 [2]: > 10000 nM
- inhibitory effects on PARP6 (in words) ([2]; conclusion of Table 21): Conclusion: Compounds 2, 43, etc., of the present disclosure exhibited relatively weak inhibitory effects on PARP6, demonstrating high selectivity.
- IC50 [3]: 50 to 500 nM

SMILES: CCc1cc2ncc(CN3CCN(c4ccc(C(=O)NC)nc4)CC3)cc2[nH]c1=O [AZD5305, reference compound]
- IC50 [2]: 8190 nM

SMILES: CCc1nc2c([nH]c1=O)C[C@@H](CN1CC=C(c3ccc(C(=O)NC)nc3F)CC1)CC2 [Example 53, (S)-1'-((2-Ethyl-3-oxo-3,4,5,6,7,8-hexahydroquinoxalin-6-yl)methyl)-2-fluoro-N-methyl-1',2', 3',6'-tetrahydro-[3,4'-bipyridine]-6-carboxamide]
- IC50 [4]: > 1000 nM
- IC50 [5]: 1.5 nM
- CL [6]: 0.67 mL/min/kg
- Vdss [6]: 0.42 L/kg
- AUC(0-t) ([6]; male, mouse, plasma): 22300 ng·h/mL
- Cmax ([6]; male, mouse, plasma): 3650 ng/mL
- half-life ([6]; male, mouse, plasma): 7.1 h
- IC50 [3]: ≤ 50 nM
- anti-tumor effect compared with the AZD9574 (3 mg/kg) group (in words) ([7]; 1 mg/kg): superior
- inhibitory effects on tumor growth (in words) ([7]; 1 mg/kg): significant inhibitory effects on tumor growth

SMILES: CNC(=O)c1ccc(N2CCN(Cc3ccc4nc(C)c(=O)[nH]c4c3F)CC2)c(F)n1 [AZD9574, reference compound]
- inhibitory effects on tumor growth (in words) ([7]; 3 mg/kg): significant inhibitory effects on tumor growth
